Results from patent publication US9567300B2, “Hexahydropentaleno derivatives, preparation method and use in medicine thereof” (SUNSHINE LAKE PHARMA CO., LTD., priority 2012, dated 2017).

Columns and labels:
[1] = biological target: T1, DPP-9 (Homo sapiens, UniProt Q86TI2); experiment: Active inhibition DPP-9 assay (Gly-Pro-AMC substrate, fluorescence); assay type: biochemical; conditions: Gly-Pro-AMC 10 μM, 50 mM Tris pH 7.5
T1 construct: purchased Bioscience 80090
Method: (§1) The following methods were used for testing the inhibitive action of the compound disclosed herein against DPP-IV, DPP-8 and DPP-9 enzymatic activity. The inhibitive ability of the compound disclosed herein against enzymatic activity of DPP-IV, DPP-8 and DPP-9 was tested. The measurements of the inhibition ratio or the 50% inhibiting concentration IC50 of every compound were based on a fixed quantity of enzyme-substrate mixtures and different concentrations of the test compounds.
DPP-9 enzyme was purchased from Bioscience, Catalog No. 80090.
(§2) The test compound was dissolved in an appropriate amount of DMSO to prepare 100 mM mother liquor, which was divided into EP tubes and preserved at −20° C. The mother liquor was diluted with an assay buffer to prepare solutions with required concentrations. Sample solutions with different concentrations (4 μL) and certain concentration of DPP-IV (DPP-8 or DPP-9) solution (4 μL) were added into 384-well plates in turn. Referred to the instruction manual, Gly-Pro-AMC was selected as a substrate and the concentration thereof was 10 μM. The 16 mM mother liquor was prepared from the substrate and preserved at −20° C. for use. The 16 mM mother liquor was diluted with an assay buffer to a solution of known concentration. The assay buffer of DPP-IV was 25 mM Tris, and its pH was 8.0. The assay buffers of DPP-8 and DPP-9 were 50 mM Tris, and their pH was 7.5. The substrate mother liquor was diluted with an assay buffer, and the mixture (4 μL) was added into 384-well plates to prepare final solution concentration. The whole process was carried out in an ice bath. After the addition of the components of the assay system was completed, the system was centrifuged. The supernatant was then transferred to an Infinite F200 multifunctional microplate reader, and 20 fluorescence values were recorded every 30 sec. And then Slope (V0) was calculated directly by the software of microplate reader, fetching the data in the linear range. The measured reaction rate and the corresponding inhibition concentration were analyzed. Percent inhibition is I(%)=(V0−Vi)/V0×100%. Vi represents the initial reaction rate at different inhibition concentrations. V0 represents the initial reaction rate without inhibitor. Vi/V0 represents the inhibition level of inhibitor. Relevant curve chart was made with inhibition concentration as a horizontal coordinate and the value of Vi/V0 as a vertical coordinate. The IC50 values were calculated by Graph Pad Prism statistical analysis software.

[2] = biological target: T2, DPP-IV (Homo sapiens, UniProt P27487); experiment: Active inhibition DPP-IV assay (Gly-Pro-AMC substrate, fluorescence); assay type: biochemical; conditions: Gly-Pro-AMC 10 μM, 25 mM Tris pH 8.0
T2 construct: purchased R&D 1180-SE
Method: as §1
DPP-IV enzyme was purchased from R&D, Catalog No. 1180-SE.
as §2

[3] = system: normal C57BL/6 mice; experiment: Effects of DPP-IV inhibitors on the blood glucose of normal C57BL/6 mice (oral glucose tolerance); assay type: in vivo; conditions: oral 5 mg/kg; for Nor-sugar rate % (5 mg/kg): male C57BL/6 mice, glucose 2.5 g/kg by gavage 30 min after administration; for hypoglycemic activities for C57BL/6 mice: conclusion in words
Method: The effects of the test compounds on the oral glucose tolerance of normal C57BL/6 mice were observed, and the hypoglycemic activities of these compounds in vivo were evaluated preliminarily.
Preparation procedure: Drugs were accurately weighed, and 5 mg of compounds of examples 3, 9 15, 16 and 17 were dissolved respectively in 20 mL of normal saline to obtain 0.25 mg/mL solutions.
Administrated Dose: The oral dose was 5 mg/kg and the gavage dose was 0.02 mL/g.
Test Method: The normal male C57BL/6 mice were grouped randomly into a blank control group, a positive control group, and treatment groups having 7 mice each group.
Administration and Serum Glucose Determination: C57BL/6 mice of each group were fasted for 18 hours before the experiment. The blood was drawn from the caudal vein of the mice and the glucose level was measured by using a blood-glucose meter. After detection, 0.25 mg/mL of positive control, 0.25 mg/mL of examples 3, 9, 15, 16 and 17 and normal saline were respectively administered to the positive control group, treatment groups and blank control group by intragastric administration. The blood glucose level (0 min) of positive control group was measured in 60 min after administration. The blood glucose levels (0 min) of the other groups were measured in 30 min after administration, and then glucose (2.5 g/kg) was administered to the mice through gavage. The blood was drawn from the caudal vein of the mice in 15 min, 30 min, 45 min, 60 min, 120 min after administration. The blood glucose levels of C57BL/6 mice were measured continuously by blood-glucose meter.
1. Glucose concentration-time curve was plotted, and AUC from 0 to 120 min and hypoglycemic rate of each dosage group at blood glucose peak were calculated.
2. Experimental data were represented in x±SD. The data were analyzed by SPSS 16.0 software. The data were compared between multiple groups using nonparametric Kruskal-Wallis H test method.

[4] = biological target: T3, DPP-8 (Homo sapiens, UniProt Q6V1X1); experiment: Active inhibition DPP-8 assay (Gly-Pro-AMC substrate, fluorescence); assay type: biochemical; conditions: Gly-Pro-AMC 10 μM, 50 mM Tris pH 7.5
T3 construct: purchased Biomol SE-827
Method: as §1
DPP-8 enzyme was purchased from Biomol, Catalog No. SE-827.
as §2

T2 sequence (P27487 whole entry): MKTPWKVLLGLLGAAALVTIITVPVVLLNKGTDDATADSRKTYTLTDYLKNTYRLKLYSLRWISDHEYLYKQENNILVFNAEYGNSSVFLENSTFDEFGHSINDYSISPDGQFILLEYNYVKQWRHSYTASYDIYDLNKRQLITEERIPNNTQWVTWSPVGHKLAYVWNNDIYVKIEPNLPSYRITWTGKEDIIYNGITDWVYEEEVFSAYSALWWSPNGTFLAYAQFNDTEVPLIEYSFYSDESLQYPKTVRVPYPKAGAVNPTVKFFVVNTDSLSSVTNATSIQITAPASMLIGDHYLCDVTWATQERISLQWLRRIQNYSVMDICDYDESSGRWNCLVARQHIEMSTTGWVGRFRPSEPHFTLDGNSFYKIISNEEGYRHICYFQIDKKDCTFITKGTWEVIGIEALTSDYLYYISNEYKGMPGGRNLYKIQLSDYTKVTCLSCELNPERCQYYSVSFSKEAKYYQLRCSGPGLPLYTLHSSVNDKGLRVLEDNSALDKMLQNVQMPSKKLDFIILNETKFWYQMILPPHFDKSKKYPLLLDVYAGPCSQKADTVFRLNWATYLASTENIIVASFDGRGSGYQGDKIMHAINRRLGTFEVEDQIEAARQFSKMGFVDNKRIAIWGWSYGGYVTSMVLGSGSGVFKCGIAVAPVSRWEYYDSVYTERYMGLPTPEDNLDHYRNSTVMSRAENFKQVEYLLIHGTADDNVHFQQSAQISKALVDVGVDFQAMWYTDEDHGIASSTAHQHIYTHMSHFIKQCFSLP
T1 sequence (Q86TI2 whole entry): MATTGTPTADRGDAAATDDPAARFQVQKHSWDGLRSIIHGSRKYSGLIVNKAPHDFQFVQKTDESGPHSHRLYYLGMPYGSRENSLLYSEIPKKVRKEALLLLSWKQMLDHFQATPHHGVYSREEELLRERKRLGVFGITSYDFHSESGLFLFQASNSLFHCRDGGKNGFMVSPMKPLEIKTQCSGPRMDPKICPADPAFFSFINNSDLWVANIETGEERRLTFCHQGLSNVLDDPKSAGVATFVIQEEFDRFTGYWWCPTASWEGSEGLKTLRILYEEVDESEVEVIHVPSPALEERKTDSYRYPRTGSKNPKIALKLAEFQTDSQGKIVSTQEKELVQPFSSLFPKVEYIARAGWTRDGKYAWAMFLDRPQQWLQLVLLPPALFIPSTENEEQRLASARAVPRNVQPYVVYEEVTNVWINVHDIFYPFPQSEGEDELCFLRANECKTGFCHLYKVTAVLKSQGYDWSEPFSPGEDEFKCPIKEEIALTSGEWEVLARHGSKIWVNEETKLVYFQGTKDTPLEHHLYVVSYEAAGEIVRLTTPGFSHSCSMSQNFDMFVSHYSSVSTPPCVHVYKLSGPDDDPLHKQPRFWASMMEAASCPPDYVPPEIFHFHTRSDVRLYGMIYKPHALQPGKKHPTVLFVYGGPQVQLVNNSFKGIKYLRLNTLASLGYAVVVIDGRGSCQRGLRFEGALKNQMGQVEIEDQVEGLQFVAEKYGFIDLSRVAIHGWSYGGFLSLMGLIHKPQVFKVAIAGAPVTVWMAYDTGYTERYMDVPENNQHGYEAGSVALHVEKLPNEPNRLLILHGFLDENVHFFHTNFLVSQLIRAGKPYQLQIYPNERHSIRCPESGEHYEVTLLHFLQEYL
T3 sequence (Q6V1X1 whole entry): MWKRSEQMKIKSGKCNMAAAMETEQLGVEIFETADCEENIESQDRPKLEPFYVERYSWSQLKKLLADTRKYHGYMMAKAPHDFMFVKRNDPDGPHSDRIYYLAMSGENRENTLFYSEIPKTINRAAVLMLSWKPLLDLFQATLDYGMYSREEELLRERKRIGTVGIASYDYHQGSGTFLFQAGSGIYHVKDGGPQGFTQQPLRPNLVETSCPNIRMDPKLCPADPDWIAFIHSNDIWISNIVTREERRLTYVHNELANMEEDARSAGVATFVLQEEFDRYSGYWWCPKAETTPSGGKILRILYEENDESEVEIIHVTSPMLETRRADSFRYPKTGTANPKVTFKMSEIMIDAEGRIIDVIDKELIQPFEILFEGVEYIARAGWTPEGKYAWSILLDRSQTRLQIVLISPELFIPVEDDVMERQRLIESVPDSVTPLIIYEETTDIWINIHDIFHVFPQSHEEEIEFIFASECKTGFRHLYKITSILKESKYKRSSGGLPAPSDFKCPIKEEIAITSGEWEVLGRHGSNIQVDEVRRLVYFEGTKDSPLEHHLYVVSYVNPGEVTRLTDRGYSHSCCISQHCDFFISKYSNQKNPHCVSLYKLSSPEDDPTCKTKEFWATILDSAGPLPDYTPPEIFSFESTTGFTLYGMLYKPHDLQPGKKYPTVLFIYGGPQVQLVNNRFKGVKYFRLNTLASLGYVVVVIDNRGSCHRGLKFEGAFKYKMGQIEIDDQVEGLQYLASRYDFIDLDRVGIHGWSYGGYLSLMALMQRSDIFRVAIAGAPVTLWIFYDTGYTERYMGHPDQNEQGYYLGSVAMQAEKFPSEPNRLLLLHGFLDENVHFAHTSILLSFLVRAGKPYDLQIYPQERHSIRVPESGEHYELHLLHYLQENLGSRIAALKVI

## C[C@@]1(NCC(=O)N2CCC[C@H]2C#N)C[C@H]2CC(C#N)C[C@H]2C1 (stereo partly drawn) [Example 16, (2S)-1-(2-(((2s,3aR,6aS)-5-cyano-2-methyloctahydropentalen-2-yl)amino)acetyl)pyrrolidine-2-carbonitrile]
[1]
  IC50: 0.34 µM
[2]
  IC50: 0.00137 µM
[3]
  Nor-sugar rate % (5 mg/kg): 24.69%
  hypoglycemic activities for C57BL/6 mice: good hypoglycemic activities
[4]
  IC50: 12.8 µM

## CC(=O)O[C@@H]1C[C@@H]2C[C@@](C)(NCC(=O)N3C[C@@H](F)C[C@H]3C#N)C[C@@H]2C1 [Example 17, (2S,3aR,5r,6aS)-5-((2-((2S,4S)-2-cyano-4-fluoropyrrolidin-1-yl)-2-oxoethyl)amino)-5-methyloctahydropentalen-2-yl acetate]
[1]
  IC50: 0.048 µM
[2]
  IC50: 0.00272 µM
[3]
  Nor-sugar rate % (5 mg/kg): 30.4%
  hypoglycemic activities for C57BL/6 mice: good hypoglycemic activities
[4]
  IC50: 3.7 µM
